Measured values from patent US9643032B2, “Application of dehydroascorbic acid or derivatives/isomers thereof for artificially coloring the skin” (L'Oreal, priority 2007, dated 2017).

Test system: Episkin model of reconstructed skin
Experiment: Skin coloring on the Episkin model of reconstructed skin, spectrocolorimeter measurement after washing
Assay type: cell-based
Experimental: The products are evaluated on the Episkin model of reconstructed skin after 18 days of culturing. The crucibles are placed on Whatman paper. 20 μl of a 5 wt % solution of test product in a 50% water/50% ethanol mixture. […] A second rinse is performed with 1 ml of water. The residual liquid is absorbed using a soft paper tissue. The measurements are taken using a Minolta CM-2600d spectrocolorimeter.
Spectrocolorimeter Minolta CM2600d
The results are expressed in the system (L*, a*, b*) dans lequel L* is the luminance, a* is the red-green axis (−a*=green, +a*=red) and b* is the yellow/blue axis (−b*=blue, +b*=yellow). Therefore, a* and b* express the coloring of the skin.
The color deviation is obtained with the color deviation formula of Hunter in the calorimetric domain L, a, b: (ΔE)^2=[(ΔL)^2+(Δa)^2+(Δb)^2]. ΔE is the darkening, the global intensity of the color: The more ΔE is important the more the color darkened.

[1] = 5 wt % solution in 50% water/50% ethanol, 20 μl, after 24 hours, after washing

Compound: O=C1OC(C(O)CO)C(=O)C1=O (stereo not drawn) [Dehydroascorbic acid, threo-2,3-hexodiulosono-1,4-lactone, 9CI]
- L* (luminance / intensity) [1]: 77.7
- a* (red component) [1]: 4.8
- b* (yellow component) [1]: 35
- ΔE*ab (color deviation, darkening) (5 wt % solution, after 24 hours, after washing, deviation versus Episkin alone): 14.6
- Shade obtained compared with DHA (concentration equal to 5 wt %): stronger shade with a more pronounced dominant red
